The target in experiment [1] is T1, purified recombinant human PAOh1/SMO (Homo sapiens, UniProt Q9NWM0).
T1 construct: A 1702 bp fragment of the PAOh1cDNA was produced by PCR; His tag (pET15b) (N); made in house; host or cells: Escherichia coli BL21(DE3)
In words: Oxidase activity of purified recombinant PAOh1/SMO, luminol chemiluminescence. The class given is biochemical. The note with it: for ability to serve as substrate (oxidation by purified PAOh1/SMO): 250 μM of compound; for inhibition of PAOh1/SMO activity, increasing concentrations: 250 μM spermine. How it is done:
Expression and Purification of PAOh1/SMO. The pET15b/PAOh1/SMO plasmid was used to transform the BL21(DE3) strain of Escherichia coli (Novagen) and transformed cells were selected on LB agar with 50 μg/ml ampicillin. The expression of PAOh1/SMO protein was induced in LB medium by the addition of 1 mM IPTG for 3 h at 37 ° C. Cell lysates were prepared under denaturing conditions with 8M urea and PAOh1/SMO protein was purified from the lysate by Ni-NTA resin according to the manufacturer's protocol (Qiagen, Valencia, Calif.). The resulting denatured protein was renatured in buffers containing decreasing concentrations of urea (5M urea, 4 h; 2.5M urea, 4 h; 1M urea, 12 h; and 0M urea, 12 h) and 50 mM Tris-HCl, pH 7.5, 250 mM NaCl, 0.1 mM EDTA, 1 mM DTT, and 0.2 μM flavin adenine dinucleotide (FAD).
Determination of PAO enzyme activity. PAO activity of the purified PAOh1/SMO was assayed using a modi.cation of the chemiluminesence analysis reported by Fernandez et al. and Rogers, et al.. Briefly, luminol-dependent chemiluminescence was determined using a Monolight 3010 luminometer with two reagent injectors. Luminol was prepared as a 100 mM stock solution in DMSO and diluted to 100 μM with H2O, immediately prior to use. Purified PAOh1/SMO was assayed in a 100 mM glycine buffer, pH 8.0, 5 ηmol luminol, 20 μg horseradish peroxidase, and the polyamine substrate as indicated. All reagents with the exception of the polyamine substrate were combined and incubated for 2 min at 37 ° C., then the tube was transferred to the luminometer, substrate was added, and the resulting chemiluminescence was integrated over 20 s. The integral values are calibrated against standards containing known concentrations of H2O2 and the activities are expressed as pmols H2O2/mg protein/min. Where indicated, inhibitors were added at the specified concentrations prior to the addition of substrate. Km and Vmax values for the purified enzyme with the indicated substrate were estimated using Lineweaver-Burk transformation of the Michaelis-Menten kinetic equation.

The subject of another experiment is PAOh1/SMO. In words: PAOh1/SMO activity in lysates of NCI A549 cells after analogue treatment. The class given is cell-based, human. The note with it: for induction of PAOh1/SMO activity: NCI A549, 24 h exposure to 10 μM of each analogue; for substrate of the inducible PAOh1/SMO activity: lysates of NCI A549 treated with 10 μM BENSpm or CPENSpm 24 h, 250 μM substrate. On the procedure: (§1) Cell Culture and Analysis of Growth Inhibition of Human Lung Cancer Cell Lines The non-small-cell cancer lines NCI A549 (adenocarcinoma), NCI H157 (squamous), NCI H727 (carcinoid), NCI H125 (adenocarcinoma) and U1752 (squamous), and the small-cell lung carcinoma lines NCI H82 and NCI H889 were cultured as we have previously described. Cells were treated for the times and with the concentrations of specific agents as indicated in the Results. For cell growth analysis in the presence of the PAOh1/SMO inhibitor MDL 72,527, the MTS dye reduction assay CellTiter 96 system from Promega was used according to the supplier's protocol. In these experiments, NCI A549 cells were seeded at 5×10^3 cells/well in a 96-well microtiter plate and treated for 96 h with 10 μM of the indicated analogue in the presence or absence of 250 μM MDL 72,527.
(§2) Total cellular RNA was extracted from the lung cancer cell lines using Trizol reagent (Invitrogen) according to the manufacturer's protocol. For Northern blotting, total RNA (20 lg) was separated on a denaturing 1.5% agarose gel containing 6% formaldehyde and transferred to Zetaprobe membrane (Bio-Rad). Random primer- labeled PAOh1 cDNA was used as probe to estimate PAOh1/SMO expression. Blots were stripped and reprobed with an 18S ribosomal cDNA to provide a loading control. Analysis of polyamine content, SSAT and PAOh1/SMO activity. Intracellular polyamine concentrations were determined using the precolumn dansylation labeling, reverse-phase high-pressure liquid chromatography method as described by Kabra et al. using 1,7-diaminoheptane as an internal standard. Polyamine concentrations are reported as nanomoles per milligram protein for each sample, where lysate protein content was measured by the method of Bradford. SSAT activity of cellular extracts was measured as previously described. […] The PAOh1/SMO assays were performed in the presence of 1.0 mM pargyline and 0.1 mM semicarbizide as inhibitors of monoamine oxidase (MAO) and diamine oxidase (DAO), respectively.

Experiment [2] relates to NCI A549 cells. In words: Intracellular polyamine and analogue content of NCI A549 cells (HPLC). The class given is cell-based, human. Particulars: NCI A549, 10 μM, 24 h.
Source text: as §2

The test system of a further experiment is SSAT. In words: SSAT activity of NCI A549 cellular extracts. The class given is cell-based, human. Particulars: NCI A549, 10 μM, 24 h; untreated 5 ± 0.1.
Source text: as §2

Experiment [3] has as its system NCI A549 cells. In words: MTS cell growth analysis of NCI A549 cells with or without MDL 72,527. Particulars: NCI A549, 96 h, 10 μM analogue with 250 μM MDL 72,527. The class given is cell-based, human. How it is done: as §1
For another experiment, the target named is T2, PAOh4 (Homo sapiens, UniProt Q9NWM0).
T2 construct: For PAO-isoform 4, the cDNA is 1825 bp long; the open reading frame encodes 532 amino acids; made in house; host or cells: Wheat Germ Extract-TnT coupled system (Promega), template pPAOh4 (pcDNA3.1), cDNA from HEK-293 mRNA
T2 sequence (Q9NWM0 1-532 isoform Q9NWM0-4): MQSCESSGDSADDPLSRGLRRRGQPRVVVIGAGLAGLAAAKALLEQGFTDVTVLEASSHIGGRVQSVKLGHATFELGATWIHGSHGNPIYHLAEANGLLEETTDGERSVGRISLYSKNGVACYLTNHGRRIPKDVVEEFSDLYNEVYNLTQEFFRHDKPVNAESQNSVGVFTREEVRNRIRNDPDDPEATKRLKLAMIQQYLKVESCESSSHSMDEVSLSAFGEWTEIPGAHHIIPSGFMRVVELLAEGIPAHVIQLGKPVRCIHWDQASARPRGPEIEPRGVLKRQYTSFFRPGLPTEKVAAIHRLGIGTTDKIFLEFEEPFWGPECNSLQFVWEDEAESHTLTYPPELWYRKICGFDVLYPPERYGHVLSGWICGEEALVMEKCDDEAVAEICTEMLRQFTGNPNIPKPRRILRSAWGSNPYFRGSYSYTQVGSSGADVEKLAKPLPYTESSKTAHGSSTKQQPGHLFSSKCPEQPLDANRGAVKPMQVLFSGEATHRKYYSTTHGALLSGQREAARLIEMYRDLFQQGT
As to the kind of experiment: Kinetics of TnT-produced PAOh4 isoenzyme. The class given is biochemical. Particulars: named compound as substrate. How it is done: For PAO splice variant protein analysis, each cDNA construct, as well as the pcDNA3.1 empty vector, was linearized using NdeI. In vitro transcription and translation was subsequently performed using the Wheat Germ Extract-TnT coupled system from Promega (Madison, Wis., U.S.A.) according to the manufacturer's protocol. Reactions were performed in parallel, with one aliquot containing [^35S]methionine in the amino acid mixture for subsequent separation and quantification by SDS-PAGE. […] After drying, bands were visualized and quantified using phosphorimage analysis with Image Quant software from Molecular Dynamics (Sunnyvale, Calif., U.S.A.).
TnT products from the reactions using unlabelled substrates were used for PAO enzyme analysis by the method of Suzuki et al. Specifically, 10 μl of the TnT reaction mixture was used for each 600 μl of PAO assay sample (in duplicate, and in the presence of monoamine and diamine oxidase inhibitors, as previously described). Background oxidase activity in the Wheat Germ Extract-TnT reactions was determined for each substrate using the empty pcDNA3.1 vector. These values (always<0.05 pmol/min) were subtracted from the oxidase activity measured in TnT lysates produced from vectors containing the individual splice variants. To ensure linearity of the reaction (thereby determining the optimal incubation time after substrate addition), time courses were performed for each potential isoenzyme in the presence of 1 mM Spm (Sigma, St. Louis, Mo., U.S.A.).
Apparent kinetics were examined for each isoenzyme using TnT reaction products as described above with increasing concentrations of Spm, Spd (Sigma) or N^1-acetylspermine (N^1-AcSpm; Fluka). Apparent Km and Vmax values were determined using the Lineweaver-Burk transformation of the Michaelis-Menten equation. Values were adjusted for TnT reaction efficiency by SDS-PAGE quantfication of a [^35S]methionine-labelled aliquot of the TnT reaction mixture normalized for methionine content.

Setting [4] is: named compound as substrate, Lineweaver-Burk.

T1 sequence (Q9NWM0 whole entry, the tested form may be a part): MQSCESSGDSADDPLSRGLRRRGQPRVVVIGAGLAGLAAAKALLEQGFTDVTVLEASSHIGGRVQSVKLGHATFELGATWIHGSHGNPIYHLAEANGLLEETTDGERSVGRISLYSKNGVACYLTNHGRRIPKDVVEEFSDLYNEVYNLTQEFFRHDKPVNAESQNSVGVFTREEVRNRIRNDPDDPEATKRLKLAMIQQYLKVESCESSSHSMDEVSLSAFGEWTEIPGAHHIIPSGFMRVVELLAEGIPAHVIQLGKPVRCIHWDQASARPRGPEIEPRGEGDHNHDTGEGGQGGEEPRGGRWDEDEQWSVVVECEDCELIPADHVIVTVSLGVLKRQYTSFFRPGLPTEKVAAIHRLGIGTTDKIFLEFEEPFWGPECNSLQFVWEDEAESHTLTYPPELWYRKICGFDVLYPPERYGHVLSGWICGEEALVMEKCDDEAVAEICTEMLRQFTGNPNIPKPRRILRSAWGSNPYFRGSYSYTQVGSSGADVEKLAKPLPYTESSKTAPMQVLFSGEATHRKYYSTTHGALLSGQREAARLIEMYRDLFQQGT

As for `CCNCCCNCCCNCCCNCC1CCCCCC1` [CHENSpm, N^1-ethyl-N^11-(cycloheptyl) methyl-4,8,diazaundecane], in experiment [1], the “ability to serve as substrate (oxidation by purified PAOh1/SMO)” value (from here on “ability … (oxidation by purified PAOh1/SMO)”) is reported as “none of the analogues examined were found to be oxidized” and the “inhibition of PAOh1/SMO activity, increasing concentrations” value is “not found to profoundly inhibit”. In addition, the “inhibition of PAOh1/SMO activity” value in experiment [1] (at 10 μM) is listed as less than 20%. In the experiment with PAOh1/SMO, the “induction of PAOh1/SMO activity” value is recorded as “significant induction”.

As for `CCNCCCNCCCNCCCNCC1CC1` [CPENSpm, N^1-ethyl-N^11-(cyclopropyl) methyl-4,8,diazaundecane], the “Polyamine: Putrescine” value in the experiment with NCI A549 cells [2] (untreated 2.1 ± 0.7) is reported as less than 0.05 nmol/mg protein. Moreover, in the experiment with NCI A549 cells [2] (untreated 9.9 ± 1.2), the “Polyamine: Spermine” value is recorded as 2.4 ± 0.4 nmol/mg protein. For the same molecule, the “Polyamine: Spermidine” value in the experiment on NCI A549 cells [2] (untreated 26.9 ± 1.2) turned out to be 5.5 ± 0.2 nmol/mg protein. Besides, the “ability … (oxidation by purified PAOh1/SMO)” value in experiment [1] is reported as “none of the analogues examined were found to be oxidized”. Also, the PAOh1/SMO activity in the experiment with PAOh1/SMO (NCI A549, 10 μM, 24 h, untreated 6,390 ± 2,070) is listed as 14,300 ± 3,700 pmol H2O2/mg/h. Besides, the “induction of PAOh1/SMO activity” value in the experiment with PAOh1/SMO is recorded as “significant induction”. The “dose-dependence of PAOh1/SMO activity” value in the experiment with PAOh1/SMO (NCI A549, increasing concentrations, 24 h) is “continued to increase at concentrations up to 50 μM”. The SSAT activity with SSAT was 1190 ± 287.9 pmol N^1-acetylspermidine/mg p. Moreover, the “sensitivity of cell growth to analogue in the presence of the PAOh1/SMO inhibitor” value in the experiment on NCI A549 cells [3] is “clear decrease in sensitivity”.

Take `CCNCCCNCCCNCCCNC[C@@H](C)CC` [IPENSpm, (S)-N1-(2-methyl-1-butyl)-N^11-ethyl-4,8,diazaundecane]: the “ability … (oxidation by purified PAOh1/SMO)” value in experiment [1] is reported as “none of the analogues examined were found to be oxidized”. Also, the “induction of PAOh1/SMO activity” value in the experiment on PAOh1/SMO was “significant induction”.

A word on the Km: it is the substrate concentration at which the rate is half of its maximum. For `CC(=O)NCCCNCCCCNCCCN` [N^1-acetylspermine], in experiment [1], the “ability … (oxidation by purified PAOh1/SMO)” value is “less efficient”. For the same molecule, in experiment [1] (setting [4]), the Km turned out to be 51 µM and the “Vmax of purified PAOh1/SMO” value came out at 0.251 μmol/mg protein/min. For the same molecule, in the experiment with PAOh1/SMO, the “substrate of the inducible PAOh1/SMO activity” value is recorded as “not significantly active”. Moreover, the “Km of PAOh4” value on PAOh4 was “nanomolar range”.

Take `CCNCCCCNCCCCNCCCCNCCCCNC/C=C/CNCCCCNCCCCNCCCCNCCCCNCC` [SL-11144]: in experiment [1], the “potency relative to MDL 72,527” value is on record as 100 times; the “ability … (oxidation by purified PAOh1/SMO)” value is listed as “none of the analogues examined were found to be oxidized”; the “inhibition of PAOh1/SMO activity, increasing concentrations” value is recorded as “potent inhibitors”. The “induction of PAOh1/SMO activity” value with PAOh1/SMO is “did not induce”.

As for `CCNCCCCNCCCCNCCCCNCCCCNC/C=C\CNCCCCNCCCCNCCCCNCCCCNCC` [SL-11150], in experiment [1], the “potency relative to MDL 72,527” value worked out at 100 times; the “ability … (oxidation by purified PAOh1/SMO)” value is on record as “none of the analogues examined were found to be oxidized”; the “inhibition of PAOh1/SMO activity, increasing concentrations” value is “potent inhibitors”. Moreover, the “induction of PAOh1/SMO activity” value in the experiment on PAOh1/SMO is given as “did not induce”.

`NCCCCNCCCN` [spermidine]: in experiment [1], the “ability … (oxidation by purified PAOh1/SMO)” value is recorded as “No PAOh1/SMO activity was observed”. The “substrate of the inducible PAOh1/SMO activity” value in the experiment on PAOh1/SMO is “not significantly active”. Further, the “Km of PAOh4” value at PAOh4 is listed as “nanomolar range”.

For `NCCCNCCCCNCCCN` [spermine], the “ability … (oxidation by purified PAOh1/SMO)” value in experiment [1] was “efficiently oxidize”. Moreover, the “substrate of the inducible PAOh1/SMO activity” value in the experiment with PAOh1/SMO is “only spermine was a substrate”. Also, the “Km of PAOh4” value on PAOh4 was “nanomolar range”.

The values are drawn from patent publication US20040229241A1, “Cloned mammalian polyamine oxidase” (priority 2001, published 2004).
